In patent publication US8889671B2, “Compounds and methods for treating bacterial infections” (AstraZeneca AB, priority 2013, dated 2014):
≈ marks a conversion by molar mass, not a printed value. Like-named read-outs stand apart in the source and are kept apart here.

How the values were obtained:
Staphylococcus aureus = experiment: Susceptibility testing (MIC) Assay 1, broth microdilution; type: cell-based
Protocol: (§1) Minimum Inhibitory Concentrations (MICs) were determined by the broth microdilution method in accordance with the Clinical and Laboratory Standards Institute (CLSI) guidelines. In brief, organism suspensions were adjusted to a 0.5 McFarland standard to yield a final inoculum between 3×10^5 and 7×10^5 colony-forming units (CFU)/mL. Bacterial inocula were prepared for most organisms in sterile, cation adjusted Mueller-Hinton Broth (Beckton Dickinson). The streptococci were prepared as above in cation adjusted Mueller-Hinton Broth to which 2.5% lysed horse blood (Hema Resource & Supply Inc.) was added. An inoculum volume of 100 μL was added to wells (using a Tecan EVO robot) containing 2 μL of DMSO containing 2-fold serial dilutions of drug. All inoculated microdilution trays were incubated in ambient air at 35° C. for 18-24 hours. Following incubation, the lowest concentration of the drug that prevented visible growth as read at OD600 nm and confirmed by a visual read using a test reading mirror was recorded as the MIC. Performance of the assay was monitored by the use of laboratory quality-control strains and commercially available control compounds with defined MIC spectrums, in accordance with CLSI guidelines. Table 1 provides the MIC results (μM) of Examples 1-77 tested in Assay 1. Table 2 provides the MIC (μg/mL) results of Examples 78-80 tested in Assay 1.

Streptococcus pneumoniae = experiment: as above; type: cell-based
Protocol: as §1

Streptococcus pyogenes = experiment: as above; type: cell-based; details: Streptococcus pyrgenes, in vivo strain, read-out: Spy MIC
Protocol: as §1

Escherichia coli = experiment: Susceptibility testing (MIC) Assay 2, broth microdilution; type: cell-based; details: K12, read-out: Eco MIC
Protocol: (§2) Minimum Inhibitory Concentrations (MICs) were determined by the broth microdilution method in accordance with the Clinical and Laboratory Standards Institute (CLSI) guidelines. In brief, organism suspensions were adjusted to a 0.5 McFarland standard to yield a final inoculum between 3×10^5 and 7×10^5 colony-forming units (CFU)/mL. Bacterial inocula were generally prepared in sterile, cation adjusted Mueller-Hinton Broth (Becton Dickinson) which included Escherichia coli, Klebsiella pneumoniae, and Pseudomonas aeruginosa. Haemophilus influenzae bacterial inocula were prepared in sterile, cation adjusted Mueller-Hinton Broth (Becton Dickinson) containing 0.5% yeast extract (Becton Dickinson) plus 30 mL of 15 μg/mL Bovine Hematin stock (Sigma), and 3 mL of 15 μg/mL β-nicotinamide adenine dinucleotide (Sigma). Strains of Neisseria were tested for MICs using agar dilution methodology in accordance with CLSI guidelines. For broth microdilution testing, an inoculum volume of 100 μL was added to wells (using a Tecan EVO robot) containing 2 μL of DMSO containing 2-fold serial dilutions of drug. All inoculated microdilution panels were incubated in ambient air at 35° C. for 18-24 hours. Following incubation, the lowest concentration of the drug that prevented visible growth as read at OD600 nm and confirmed by a visual read using a test reading mirror was recorded as the MIC. Performance of the assay was monitored by the use of laboratory quality-control strains and commercially available control compounds with defined MIC spectrums, in accordance with CLSI guidelines. Table 3 provides the MIC results (μM) of Examples 1-77 tested in Assay 2. Table 4 provides the MIC (μg/mL) results of Examples 78-80 tested in Assay 2.

Haemophilus influenzae = experiment: as above; type: cell-based; details: ATCC 51907, in vivo strain, read-out: Hin MIC
Protocol: as §2

Klebsiella pneumoniae = experiment: as above; type: cell-based; details: clinical isolate, mucoid, read-out: Kpn MIC
Protocol: as §2

Pseudomonas aeruginosa = experiment: as above; type: cell-based; details: for MIC: PAO1, read-out: Pae MIC
Protocol: as §2

[1] = target: Escherichia coli DNA gyrase A/B tetramer (Escherichia coli (strain K12), UniProt P0AES4+P0AES6); experiment: DNA gyrase supercoiling activity fluorescence polarisation assay; type: biochemical; details: Eco Gyr FP Mean IC50, E. coli DNA gyrase supercoiling, 0.3 mM ATP
Protocol: In a black, 384-well polystyrene assay plate, 30 microliters/well of 5 nM Escherichia coli DNA gyrase A/B tetramer and 130 micrograms/mL of topologically relaxed plasmid containing the triplex-forming sequence
in an assay buffer consisting of 35 mM Tris-HCl (pH 7.5), 24 mM KCl, 4 mM MgCl2, 2 mM dithiothreitol, 1.8 mM spermidine, 5% (v/v) glycerol, 200 nM bovine serum albumin, 0.8% dimethylsulfoxide, and 0.3 mM ATP were incubated at ambient temperature for (typically 30 minutes) in the absence or presence of 5-10 different concentrations of test compound. The supercoiling reactions were quenched by the addition of 10 microliters/well of 40 nM oligodeoxynucleotide probe in 3× triplex-forming buffer consisting of 150 mM NaCl, and 150 mM sodium acetate at pH 3.5. The oligodeoxynucleotide probe was 5′-BODIPY-FL-labeled
After 60 minutes, the fluorescence anisotropy of the BODIPY-FL was measured in a Tecan Ultra plate reader, using 485 nm excitation and 535 nm emission filters equipped with polarizers. The IC50 was determined by nonlinear regression using two control reactions.

[2] = Staphylococcus aureus, Staphylococcus aureus in vivo strain, MSQS, read-out: Sau(d) MIC
[3] = Staphylococcus aureus, in vivo strain, MRQR, read-out: Sau(e) MIC
[4] = Staphylococcus aureus, serum, read-out: Sau(f) MIC
[5] = in vivo strain (footnote b), read-out: Spn(b) MIC
[6] = in vivo strain (footnote c), read-out: Spn(c) MIC
[7] = ATCC51907, Haemophilus influenzae

Compound	MIC (Staphylococcus aureus; [2]) [µM]	MIC (Staphylococcus aureus; [3]) [µM]	MIC (Staphylococcus aureus; [4]) [µM]	MIC (Streptococcus pneumoniae; [5]) [µM]	MIC (Streptococcus pneumoniae; [6]) [µM]	MIC (Streptococcus pyogenes; Streptococcus pyogenes) [µM]	MIC (Escherichia coli) [µM]	MIC (Haemophilus influenzae; [7]) [µM]	MIC (Klebsiella pneumoniae) [µM]	MIC (Pseudomonas aeruginosa) [µM]	IC50 [1] [nM]	MIC (Staphylococcus aureus; Staphylococcus aureus in vivo strain, MSQS, read-out: Sau(d) MIC) [µM]	MIC (Streptococcus pyogenes) [µM]	MIC (Haemophilus influenzae) [µM]	Pae MIC (Pseudomonas aeruginosa; PAO1) [µM]
C[C@@H]1CN2c3c(cc4c(N5CC(C)(C)OC5=O)noc4c3F)CC3(C(=O)NC(=O)NC3=O)[C@H]2[C@H](C)O1 (racemic) [Example 12, (2R,4S,4aS)-8-(5,5-Dimethyl-2-oxo-1,3-oxazolidin-3-yl)-11-fluoro-2,4-dimethyl-1,2,4,4a-tetrahydro-2′H,6H-spiro[1,4-oxazino[4,3-a][1,2]oxazolo[4,5-g]quinoline-5,5′-pyrimidine]-2′,4′,6′(1′H,3′H)-trione]	1.6 (≈ 0.802 µg/mL)	3.1 (≈ 1.55 µg/mL)	25 (≈ 12.5 µg/mL)	6.2 (≈ 3.11 µg/mL)	6.2 (≈ 3.11 µg/mL)	3.1 (≈ 1.55 µg/mL)	100 (≈ 50.1 µg/mL)	3.1 (≈ 1.55 µg/mL)	> 200	> 200	3200				
COC[C@H]1COC(=O)N1c1noc2c(F)c3c(cc12)CC1(C(=O)NC(=O)NC1=O)[C@H]1[C@H](C)O[C@H](C)CN31 (single isomer, unassigned) [Example 17]	0.28 (≈ 0.145 µg/mL)	0.78 (≈ 0.404 µg/mL)	0.39 (≈ 0.202 µg/mL)	0.55 (≈ 0.285 µg/mL)	0.55 (≈ 0.285 µg/mL)	0.55 (≈ 0.285 µg/mL)	50 (≈ 25.9 µg/mL)	0.39 (≈ 0.202 µg/mL)	> 200	> 200	140				
COC[C@H]1COC(=O)N1c1noc2c(F)c3c(cc12)CC1(C(=O)NC(=O)NC1=O)[C@H]1[C@H](C)O[C@H](C)CN31 (single isomer, unassigned) [Example 67]		0.55 (≈ 0.285 µg/mL)	0.55 (≈ 0.285 µg/mL)	0.4 (≈ 0.207 µg/mL)	0.55 (≈ 0.285 µg/mL)		25 (≈ 12.9 µg/mL)		>200		330	0.28 (≈ 0.145 µg/mL)	0.28 (≈ 0.145 µg/mL)	0.55 (≈ 0.285 µg/mL)	>200
C[C@@H]1CN2c3c(cc4c(N5CCOC5=O)noc4c3F)CC3(C(=O)NC(=O)NC3=O)[C@H]2[C@H](C)O1 [Example 1, (2R,4S,4aS)-11-Fluoro-2,4-dimethyl-8-(2-oxo-1,3-oxazolidin-3-yl)-1,2,4,4a-tetrahydro-2′H,6H-spiro[1,4-oxazino[4,3-a][1,2]oxazolo[4,5-g]quinoline-5,5′-pyrimidine]-2′,4′,6′(1′H,3′H)-trione]	0.39 (≈ 0.185 µg/mL)	3.1 (≈ 1.47 µg/mL)	0.78 (≈ 0.369 µg/mL)	0.78 (≈ 0.369 µg/mL)	0.78 (≈ 0.369 µg/mL)	0.39 (≈ 0.185 µg/mL)	50 (≈ 23.7 µg/mL)	0.78 (≈ 0.369 µg/mL)	> 200	> 200	1300				
C[C@@H]1CN2c3c(cc4c(N5C(=O)OC[C@H]5C)noc4c3F)CC3(C(=O)NC(=O)NC3=O)[C@H]2[C@H](C)O1 [Example 2, (2R,4S,4aS)-11-Fluoro-2,4-dimethyl-8-[(4R)-4-methyl-2-oxo-1,3-oxazolidin-3-yl]-1,2,4,4a-tetrahydro-2′H,6H-spiro[1,4-oxazino[4,3-a][1,2]oxazolo[4,5-g]quinoline-5,5′-pyrimidine]-2′,4′,6′(1′H,3′H)-trione]	3.1 (≈ 1.51 µg/mL)	12 (≈ 5.85 µg/mL)	6.2 (≈ 3.02 µg/mL)	12 (≈ 5.85 µg/mL)	3.1 (≈ 1.51 µg/mL)	3.1 (≈ 1.51 µg/mL)	100 (≈ 48.7 µg/mL)	1.6 (≈ 0.78 µg/mL)	> 200	> 200	2700				
C[C@@H]1CN2c3c(cc4c(N5C[C@H](C)OC5=O)noc4c3F)CC3(C(=O)NC(=O)NC3=O)[C@H]2[C@H](C)O1 [Example 3, (2R,4S,4aS)-11-Fluoro-2,4-dimethyl-8-[(5S)-5-methyl-2-oxo-1,3-oxazolidin-3-yl]-1,2,4,4a-tetrahydro-2′H,6H-spiro[1,4-oxazino[4,3-a][1,2]oxazolo[4,5-g]quinoline-5,5′-pyrimidine]-2′,4′,6′(1′H,3′H)-trione]	0.39 (≈ 0.19 µg/mL)	1.6 (≈ 0.78 µg/mL)	1.6 (≈ 0.78 µg/mL)	1.6 (≈ 0.78 µg/mL)	1.6 (≈ 0.78 µg/mL)	0.78 (≈ 0.38 µg/mL)	50 (≈ 24.4 µg/mL)	1.6 (≈ 0.78 µg/mL)	> 200	> 200	1440				
C[C@@H]1CN(c2noc3c(F)c4c(cc23)CC2(C(=O)NC(=O)NC2=O)[C@H]2[C@H](C)O[C@H](C)CN42)C(=O)O1 [Example 4, (2R,4S,4aS)-11-Fluoro-2,4-dimethyl-8-[(5R)-5-methyl-2-oxo-1,3-oxazolidin-3-yl]-1,2,4,4a-tetrahydro-2′H,6H-spiro[1,4-oxazino[4,3-a][1,2]oxazolo[4,5-g]quinoline-5,5′-pyrimidine]-2′,4′,6′(1′H,3′H)-trione]	0.25 (≈ 0.122 µg/mL)	0.67 (≈ 0.327 µg/mL)	0.47 (≈ 0.229 µg/mL)	0.42 (≈ 0.205 µg/mL)	0.46 (≈ 0.224 µg/mL)	0.36 (≈ 0.175 µg/mL)	9.9 (≈ 4.83 µg/mL)	0.47 (≈ 0.229 µg/mL)	200 (≈ 97.5 µg/mL)	> 200	390				
CC[C@H]1COC(=O)N1c1noc2c(F)c3c(cc12)CC1(C(=O)NC(=O)NC1=O)[C@H]1[C@H](C)O[C@H](C)CN31 [Example 6, (2R,4S,4aS)-8-[(4S)-4-Ethyl-2-oxo-1,3-oxazolidin-3-yl]-11-fluoro-2,4-dimethyl-1,2,4,4a-tetrahydro-2′H,6H-spiro[1,4-oxazino[4,3-a][1,2]oxazolo[4,5-g]quinoline-5,5′-pyrimidine]-2′,4′,6′(1′H,3′H)-trione]	1.6 (≈ 0.802 µg/mL)	6.2 (≈ 3.11 µg/mL)	12 (≈ 6.02 µg/mL)	6.2 (≈ 3.11 µg/mL)	3.1 (≈ 1.55 µg/mL)	3.1 (≈ 1.55 µg/mL)	100 (≈ 50.1 µg/mL)	3.1 (≈ 1.55 µg/mL)	121 (≈ 60.7 µg/mL)	> 200	3300				
CC[C@@H]1COC(=O)N1c1noc2c(F)c3c(cc12)CC1(C(=O)NC(=O)NC1=O)[C@H]1[C@H](C)O[C@H](C)CN31 [Example 7]	6.2 (≈ 3.11 µg/mL)	12 (≈ 6.02 µg/mL)	25 (≈ 12.5 µg/mL)	25 (≈ 12.5 µg/mL)	12 (≈ 6.02 µg/mL)	6.2 (≈ 3.11 µg/mL)	200 (≈ 100 µg/mL)	12 (≈ 6.02 µg/mL)	> 200	> 200	9700				
C[C@@H]1CN2c3c(cc4c(N5C(=O)OC[C@H]5c5ccccc5)noc4c3F)CC3(C(=O)NC(=O)NC3=O)[C@H]2[C@H](C)O1 [Example 8, (2R,4S,4aS)-11-Fluoro-2,4-dimethyl-8-[(4R)-2-oxo-4-phenyl-1,3-oxazolidin-3-yl]-1,2,4,4a-tetrahydro-2′H,6H-spiro[1,4-oxazino[4,3-a][1,2]oxazolo[4,5-g]quinoline-5,5′-pyrimidine]-2′,4′,6′(1′H,3′H)-trione]	6.2 (≈ 3.41 µg/mL)	12 (≈ 6.59 µg/mL)	200 (≈ 110 µg/mL)	50 (≈ 27.5 µg/mL)	50 (≈ 27.5 µg/mL)	12 (≈ 6.59 µg/mL)	> 200	12 (≈ 6.59 µg/mL)	> 200	> 200	7300				
